According to patent US12054447B2, “PCNA inhibitors” (City of Hope, priority 2015, dated 2024):
“Also recorded” adds a separate entry of the source.

Experiments:
[1] = test system: PBMC; assay: Cell growth, CellTitor-Glo assay, 72 h; format: cell-based, human; details: Homo sapiens; PBMC (non-malignant)
Method: The human NB cell lines, SK-N-DZ, SK-N-BE(2)c, SK-N-AS, and LAN-5 obtained from the American Type Culture Collection (Rockville, MD), were cultured in DMEM with 10% fetal bovine serum (FBS), 100 units/ml penicillin, and 100 μg/ml streptomycin in the presence of 5% CO2 at 37° C. Human PBMCs from a healthy donor were purchased from Sanguine BioSciences (Valencia, CA) and grown in RPMI1640 with 10% FBS, 100 units/ml penicillin, 100 μg/ml streptomycin, and 10 ng/ml IL-2 in the presence of 5% CO2 at 37° C. Human embryonic progenitor cell line 7SM0032 was acquired from Millipore (Billerica, MA) and grown in the hEPM-1 Media Kit purchased from the same company. The plasmid pCBASce expresses the rare cutting I-SceI meganuclease. The U20S-derived cell lines, DR-GFP and EJ5-GFP, each contain a stably transfected reporter gene for DSB repair mediated by HR and end joining (EJ), respectively. These cell lines were cultured in DMEM medium with 10% FBS at 37° C. in the presence of 5% CO2.
(§1) To measure the effect of the compounds on cell growth, cells were seeded at 3×10^4/ml into a 96-well plate. Once attached, cells were treated with various concentrations of AOH1160 for 72 h. Cell growth was measured by the CellTitor-Glo assay (Promega, Madison, WI) according to the manufacturer's instructions. To measure apoptosis, cells were seeded at 1×10^5/ml onto a chamber slide. Once attached, cells were treated with the 500 nM AOH1160 for 24 h. Cells were fixed and analyzed by a TUNEL assay using the TMR red in situ cell death detection kit (Roche Diagnostics, Indianapolis, IN).

[2] = test system: NB cell lines; assay: Cell viability assay on NB cell lines; format: cell-based, human; details: for concentrations that selectively kill neuroblastoma cells: FIG. 14A
Method: as §1
To identify small molecule compounds that target the PCNA and FEN1 interface, we started with known crystal structures of the PCNA/FEN1 complex that are available from the RCSB protein database. To improve the likelihood of identifying novel small molecules that specifically target caPCNA, we focused our virtual screen on the binding pocket in PCNA delineated by residues L126 and Y133 and screened databases consisting of more than 6.8 million chemical structures available at the AMRI. A set of 57 compounds identified by the virtual screen was acquired and further tested in a cell viability assay. A compound (AOH39) was selected for further development due to its anti-cancer activity and selectivity.

[3] = test system: non-malignant cells; assay: Toxicity to non-malignant cells; format: cell-based
Method: as §1
To improve the anti-tumor potency of the compound while preserving its favorable selectivity, a series of compounds were synthesized and tested. […] The combined improvements in potency and selectivity lead to a significant improvement in the therapeutic window (FIG. 1). AOH1160 was tested in a broad range of non-malignant cells, including human primary mammary epithelial and small airway epithelial cells, and no significant toxicity was found in these cells up to a concentration of 10 μM.

[4] = test system: 7SM0032; assay: Cell cycle analysis (PI, flow cytometry); format: cell-based, human; details: for cell cycle effect on normal cells: 7SM0032
Method: (§2) Cells were seeded at 1×10^5/ml in a 6-well plate. Once attached overnight, cells were treated with or without AOH1160 for 6 or 24 h. After being fixed in 60% ethanol and stained with propidium iodide (PI), cells were analyzed by flow cytometry to determine the cellular PI fluorescence intensity. The flow cytometry data were analyzed by the FlowJo program to model various cell populations.

[5] = Liver microsome assay; format: in vitro ADME, human
Description: FIG. 11. AOH1160 stability in a liver microsome assay. Liver is a major organ responsible for drug metabolism. We tested the stability of AOH1160 in a liver microsome assay. By analyzing the metabolites, we determined a major pathway responsible for AOH1160 metabolism.
Liver is a major organ responsible for drug metabolism. We tested the stability of AOH1160 in a liver microsome assay (FIG. 11). By analyzing the metabolites, we determined a major pathway responsible for AOH1160 metabolism.

[6] = test system: small cell lung cancer cells; assay: Killing of small cell lung cancer cells; format: cell-based; details: FIG. 14B
[7] = test system: neuroblastoma cells (SH-SY5Y and SK-N-BE(2)c); assay: Cell cycle analysis; format: cell-based
Method: as §2

[8] = test system: CAKI-1; assay: NCI-60 panel test; format: cell-based; details: Homo sapiens; CAKI-1, NCI-60 5-dose study
Method: FIG. 7. NCI-60 panel test. The effect of AOH1160 on growth of the NCI-60 panel, which consists of 60 cancer cell lines representing 9 major cancer types, was tested in a 5-dose study. Shown are the Log IC50 values determined for each cell line. […] This study was performed by the National Institute of Cancer.
As observed in FIG. 7, the effect of AOH1160 on growth of the NCI-60 panel, which consists of 60 cancer cell lines representing 9 major cancer types, was tested in a 5-dose study. Shown are the Log IC50 values determined for each cell line.

[9] = test system: A549; assay: AOH1160 IC50 in additional cancer cell lines (Table 4); format: cell-based; details: Homo sapiens; A549, Non-Small Cell Lung
Description: (§3) In addition numerous analogs related to AOH1160 were screened in numerous neuroblastoma cell lines for anti-cancer activity (Table 2). AOH1160 was screened for anti-cancer activity in additional cancer cell lines besides neuroblastoma (Table 3).

[10] = test system: DU-145; assay: as above; format: cell-based; details: Homo sapiens; DU-145, Prostate
Description: as §3

[11] = test system: HCT-116; assay: as above; format: cell-based; details: Homo sapiens; HCT-116, Colon
Description: as §3

[12] = test system: HCT-15; assay: as above; format: cell-based; details: Homo sapiens; HCT-15, Colon
Description: as §3

[13] = test system: HL-60; assay: as above; format: cell-based; details: Homo sapiens; HL-60, Leukemia
Description: as §3

[14] = test system: NCI-H23; assay: as above; format: cell-based; details: Homo sapiens; NCI-H23, Non-Small Cell Lung
Description: as §3

[15] = test system: NCI-H322M; assay: as above; format: cell-based; details: Homo sapiens, Non-Small Cell Lung
Description: as §3

[16] = test system: OVCAR-8; assay: as above; format: cell-based; details: Homo sapiens; OVCAR-8, Ovarian
Description: as §3

With `COc1ccc(Oc2ccccc2NC(=O)CNC(=O)c2cccc3ccccc23)cc1` [PCNA6] the IC50 [1] was > 20000 nM.

With `COc1cccc(Oc2ccccc2NC(=O)CNC(=O)c2cccc3ccccc23)c1` [PCNA7/ AOH1996] the IC50 [1] was > 20000 nM, the “concentrations that selectively kill neuroblastoma cells” value [2] was “below micromolar concentrations” and the “toxicity to non-malignant cells” value ([3]; neural crest stem cells (7SM0032), hSAEC, PBMCs) was “minimal toxicity to non-malignant cells”. The “cell cycle effect on normal cells” value [4] was “exerted little effect on normal cells”, the “stability in a liver microsome assay” value ([5]; NADPH dependent metabolism) was “stable to NADPH dependent metabolism; also recorded: stable in a liver microsome assay” and the “concentrations that selectively kill small cell lung cancer cells” value [6] was “below micromolar concentrations”. The cell cycle effect [7] was “caused S/G2 cell cycle arrest” and the GI50 [8] was 912 nM.

With `O=C(CNC(=O)c1cccc2ccccc12)Nc1ccccc1Oc1ccc(O)cc1` [PCNA1] the IC50 [1] was > 20000 nM.

For `O=C(CNC(=O)c1cccc2ccccc12)Nc1ccccc1Oc1ccccc1` [AOH1160], the IC50 [1] was > 20000 nM, the “concentrations that selectively kill neuroblastoma cells” value [2] was “below micromolar concentrations” and the IC50 ([2]; Homo sapiens, multiple NB cell lines, read-out: IC50 range over NB cell lines) was 180 to 220 nM. The “increase in compound potency over AOH39 in cell viability assays” value ([2]; NB cells) was 6-7 fold, the “toxicity to non-malignant cells compared with AOH39” value ([3]; PBMC and 7SM0032 cells) was “less toxic to non-malignant PBMC and 7SM0032 cells than AOH39” and the “concentration causing significant toxicity (none found up to)” value ([3]; broad range of non-malignant cells incl. human primary mammary epithelial and small airway epithelial cells) was > 10 µM. For the same compound, the “cell cycle effect on normal cells” value [4] was “exerted little effect on normal cells”, the cell cycle effect ([4]; 7SM0032 cells, 500 nM) was “doesn't significantly change the cell cycle profiles” and the “metabolic pathway in liver microsomes” value ([5]; human liver microsomes, NADPH) was “mainly metabolized through mono- and di-hydroxylation in a NADPH-dependent manner”. For the same compound, the “concentrations that selectively kill small cell lung cancer cells” value [6] was “below micromolar concentrations”, the cell cycle effect [7] was “caused S/G2 cell cycle arrest” and the IC50 [9] was 173 nM. The IC50 [10] was 200 nM, the IC50 [11] was 102 nM and the IC50 [12] was 133 nM. For the same compound, the IC50 [13] was 128 nM, the IC50 [14] was 194 nM and the IC50 [15] was 157 nM. The IC50 [16] was 204 nM and the GI50 [8] was 355 nM.

In the case of `O=C(CNC(=O)c1cccc2ccccc12)Nc1ccccc1Oc1cccc(O)c1` [PCNA2], the IC50 [1] is reported as > 20000 nM.
